Experimental data from publication PMC6470589, “Contribution of Molecular Structure to Self-Assembling and Biological Properties of Bifunctional Lipid-Like 4-(N-Alkylpyridinium)-1,4-Dihydropyridines” (Pharmaceutics, 2019).
“And” between values parts separate entries of the source, which are not always exact repeats. Equal values may be shown once. “Also recorded” adds a separate entry of the source.

Key:
[1] = Self-assembling properties by dynamic light scattering (DLS); assay type: physicochemical; details: for PDI ± SD, 1 Set: freshly prepared samples; for Zeta-Pot ± SD: freshly prepared samples in water, 0.5 mg/mL (1–7), 0.25 mg/mL (8–10), 0.1 mg/mL (11); for PDI ± SD, 2 Set: two weeks after the first set, samples stored at r.t.; for Stability of nanoparticles: two weeks of storage at r.t., DLS
Procedure: Samples of compounds for dynamic light scattering (DLS) studies were prepared by thin-film hydration method in an aqueous solution at a concentration of 0.5 mg/mL for compounds 1–7, 0.25 mg/mL for compounds 8–10, and 0.1 mg/mL for compound 11. A corresponding amount of compounds was weighted in a round-bottom flask and dissolved in chloroform; then, the organic solvent was removed in vacuo, and the residue was dried in high vacuo for 1 h. An appropriate amount of deionised water was added to each flask for the preparation of stock solutions with the above-mentioned concentrations. Samples were prepared by sonication using a bath-type sonicator (Cole Parmer Ultrasonic Cleaner 8891CPX (Vernon Hills, IL, USA)). Samples were sonicated for 60 min at 50 °C.
The DLS measurements of the nanoparticles in an aqueous solution were carried out on a Zetasizer Nano ZSP (Malvern Panalytical Ltd., Malvern, UK) instrument with Malvern Instruments Ltd. Software 7.12, using the following specifications—medium: water; refractive index: 1.33; viscosity: 0.8872 cP; temperature: 25 °C; dielectric constant: 78.5; nanoparticles: liposomes; refractive index of materials: 1.60; detection angle: 173°; wavelength: 633 nm. Data were analysed using the multimodal number distribution software that was included with the instrument. The measurements were performed in triplicate in order to check their reproducibility.

[2] = test system: MH-22A (mouse hepatocarcinoma) cells; experiment: MTT cytotoxicity assay on MH-22A tumor cells, 72 h; assay type: cell-based; details: MTT, 72 h; ne = no effect in the tested concentration (up to 100 μg/mL)
Procedure: (§1) Tumor cell lines HT-1080 (human connective tissue fibrosarcoma) and MH-22A (mouse hepatocarcinoma) were used. All of the cells were obtained from the American Type Culture Collection ((ATCC,) Rockville, MD, USA). HT-1080 and MH-22A cells (4 × 10^4 cell/mL) were seeded in 96-well plates in Dulbecco’s modified Eagle’s medium (DMEM) containing 10% fetal bovine serum and cultivated for 72 h at 37 °C, 5% CO2 by exposure to different compounds concentrations (100 μg/mL, 25 μg/mL, 6.25 μg/mL, and 1.56 μg/mL). Cell viability was measured using 3-(4,5-dimethylthiazol-2-yl)-2,5-diphenyl-tetrazolium bromide (MTT) assay. In brief, after incubating with compounds, the culture medium was removed and fresh medium with 0.2 mg/mL MTT was added in each well of the plate. After incubation (3 h, 37 °C, 5% CO2), the medium with MTT was removed, and 200 μL of DMSO was added at once to each sample. The samples were tested at 540 nm on a Tecan multiplate reader Infinite1000 (Tecan Austria GmbH, Salzburg, Austria). The IC50 was calculated using the program Graph Pad Prism® 3.0.

[3] = test system: HT-1080 (human connective tissue fibrosarcoma) cells; experiment: MTT cytotoxicity assay on HT-1080 tumor cells, 72 h; assay type: cell-based; details: MTT, 72 h; ne = no effect in the tested concentration (up to 100 μg/mL)
Procedure: as §1

[4] = test system: NIH 3T3 (Mouse Swiss Albino embryo fibroblast) cells; experiment: Basal cytotoxicity test (neutral red uptake) with estimation of LD50 from IC50; assay type: cell-based; details: category by estimated LD50 (mg/kg)
Procedure: The neutral red uptake (NRU) assay was performed according to the standard protocol of Stokes modified by NICEATM-ECVAM validation study. The NRU cytotoxicity assay procedure was based on the ability of viable cells to incorporate and bind neutral red, which is a supravital dye.
NIH 3T3 (Mouse Swiss Albino embryo fibroblast) cells (9000 cells/well) were placed into 96-well plates for 24 h in DMEM medium containing 5% fetal bovine serum (FBS). Then, they were exposed to the test compound over a range of seven concentrations (1000 μg/mL, 316 μg/mL, 100 μg/mL, 31 μg/mL, 10 μg/mL, 3.0 μg/mL, and 1.0 μg/mL) for 24 h. Untreated cells were used as a control. After 24 h, the medium was removed from all plates. Then, 250 μL of neutral red (NR) solution was added (0.05 mg/mL NR in DMEM 24 h pre-incubated at 37 °C and then filtered before use through a 0.22-µm syringe filter). Plates were incubated for 3 h, and then, cells were washed three times with phosphate buffered saline (PBS). The dye within viable cells was released by extraction with a mixture of acetic acid, ethanol, and water (1:50:49). The absorbance of neutral red was measured using a spectrophotometer multiplate reader Infinite M1000 (Tecan Austria GmbH, Salzburg, Austria) at 540 nm. The optical density (OD) was calculated using the formula: OD (treated cells) × 100/OD (control cells). The IC50 values were calculated using the program Graph Pad Prism® 3.0.
Data from the in vitro tests were used for estimating the starting dose for acute oral systemic toxicity tests in rodent. The in vivo starting dose is an estimated LD50 value that is calculated by inserting the in vitro IC50 value into a regression formula: log LD50 (mM/kg) = 0.439 log IC50 (mM) + 0.621 [29]. The value is recalculated to mg/kg, and compounds are evaluated in accordance with four toxicity categories: category 1: LD50 ≤ 5 mg/kg (highly toxic); category 2: 5 < LD50 ≤ 50 mg/kg (moderately toxic); category 3: 50 < LD50 ≤ 300 mg/kg (slightly toxic); category 4: 300 < LD50 ≤ 2000 mg/kg (practically non-toxic). Using an alternative in vitro method enables comparing the possible toxicity of new compounds and selecting compounds for further study, which will vastly reduce the number of animal experiments.

[5] = MTT cytotoxicity assay on MH-22A tumor cells, 72 h; assay type: cell-based, mouse; details: mouse, MH-22A hepatocarcinoma cells, MTT, 72 h; ne = no effect in the tested concentration (up to 100 μg/mL); read-out: Cytotoxicity IC50, MH-22A
Procedure: as §1

[6] = MTT cytotoxicity assay on HT-1080 tumor cells, 72 h; assay type: cell-based, human; details: human, HT-1080 fibrosarcoma cells, MTT, 72 h; ne = no effect in the tested concentration (up to 100 μg/mL); read-out: Cytotoxicity IC50, HT-1080
Procedure: as §1

[7] = test system: Bacillus subtilis subsp. spizizenii; experiment: Toxicity screen, serial dilution-spot test; assay type: cell-based; details: gram positive; 24 h exposure in DI water, 28 °C; 0.0001 = no colonies at 0.001 mM;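 note: last dilution that did not fully inhibit growth with colonies still present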
Procedure: (§2) An estimation of the toxicity of 4-(N-alkylpyridinium)-1,4-DHP derivatives 3, 6, 7, and 9–11 was performed using six prokaryotic (bacteria) and one eukaryotic (yeast) microorganism species according to the procedure elaborated by Suppi et al.. The microorganisms used in the study and their origin were: Bacillus subtilis subsp. spizizenii (ATCC® 6633™*, Microbiologics®, St Cloud, MN, USA), Escherichia coli (ATCC® 8739, Microbiologics®), Klebsiella pneumoniae (Latvian Microorganisms strain collection, LMKK, strain number 535, Riga, Latvia), Micrococcus luteus (LMKK, No. 25), Pseudomonas aeruginosa (NCTC 12924, Biosciences Ltd., Dublin, Ireland), Proteus mirabilis (LMKK, No 590), and Saccharomyces cerevisiae, CEN.PK2 strain [32].
(§3) Bacteria and yeast cultures were cultivated until their exponential growth phase (optical density max 1); then, 100 µL of cell suspension was taken, washed in deionised (DI) water, and added to serially diluted samples of corresponding 4-(N-alkylpyridinium)-1,4-DHPs in DI water. All 1,4-DHPs were tested in five serially diluted concentrations (10 mM, 1 mM, 0.1 mM, 0.01 mM, and 0.001 mM). Test organisms were exposed to 1,4-DHP derivatives in DI water on 96-well microplates (Corning, Corning, NY, USA) at 28 °C for 24 h without shaking in the dark. Then, a 5 µL sample was taken from each well and spotted on yeast extract, bactopeptone, dextrose broth (YPD) (yeast extract 1%, bactopeptone 2%, glucose 2% and agar 2%) plates to test the growth of yeasts and lysogeny broth (LB) (yeast extract 0.5%, bactopeptone 1%, NaCl 0.5% and agar 2%) to test the growth for bacteria. Plates were left in 30 °C for 24 h, and assessed for microbial growth.
(§4) If there were no colonies after incubation with 1,4-DHPs in the last concentration of (0.001 mM), then their boundary concentration was set to 0.0001 mM or 0.1 µM.

[8] = test system: Saccharomyces cerevisiae, CEN.PK2 strain; experiment: Toxicity screen, serial dilution-spot test; assay type: cell-based; details: yeast; 24 h exposure in DI water, 28 °C; 0.0001 = no colonies at 0.001 mM;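 note: last dilution that did not fully inhibit growth with colonies still present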
Procedure: as §2, §3, §4

[9] = test system: Escherichia coli; experiment: Toxicity screen, serial dilution-spot test; assay type: cell-based; details: gram negative; 24 h exposure in DI water, 28 °C; 0.0001 = no colonies at 0.001 mM;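 note: last dilution that did not fully inhibit growth with colonies still present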
Procedure: as §2, §3, §4

[10] = test system: Proteus mirabilis; experiment: Toxicity screen, serial dilution-spot test; assay type: cell-based; details: gram negative; 24 h exposure in DI water, 28 °C; 0.0001 = no colonies at 0.001 mM;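 note: last dilution that did not fully inhibit growth with colonies still present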
Procedure: as §2, §3, §4

[11] = test system: Pseudomonas aeruginosa; experiment: Toxicity screen, serial dilution-spot test; assay type: cell-based; details: gram negative; 24 h exposure in DI water, 28 °C; 0.0001 = no colonies at 0.001 mM;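 note: last dilution that did not fully inhibit growth with colonies still present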
Procedure: as §2, §3, §4

[12] = test system: Micrococcus luteus; experiment: Toxicity screen, serial dilution-spot test; assay type: cell-based; details: gram positive; 24 h exposure in DI water, 28 °C; 0.0001 = no colonies at 0.001 mM;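 note: last dilution that did not fully inhibit growth with colonies still present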
Procedure: as §2, §3, §4

[13] = test system: Klebsiella pneumoniae; experiment: Toxicity screen, serial dilution-spot test; assay type: cell-based; details: gram negative; 24 h exposure in DI water, 28 °C; 0.0001 = no colonies at 0.001 mM;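 note: last dilution that did not fully inhibit growth with colonies still present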
Procedure: as §2, §3, §4

[14] = Determination of critical aggregation concentration (CAC) by DLS; assay type: physicochemical; details: aqueous media
Procedure: The critical aggregation concentrations (CAC) of 4-(N-alkylpyridinium)-1,4-DHP derivatives were determined in aqueous media using a Zetasizer Nano S90 (Malvern Panalytical Ltd., Malvern, UK) instrument with Malvern Instruments Ltd. Software according to procedure described by Topel et al. and modified by our group. Briefly, as stock solutions of tested compounds were used, samples were prepared for self-assembling experiments. All of the subsequent samples were prepared starting from the concentrated stock solution, which was subjected to a serial two-fold dilution each time with water. The intensity values of scattered light (kcps) as a function of concentration of amphiphiles were analysed. The scattering intensities detected for amphiphile concentrations below CAC have an approximately constant value corresponding to water. The intensity starts to show a linear increase with concentration at the CAC, since the amount of nanoparticles increases in the solution. The intersection of the best-fit lines drawn through the data points is the preliminary CAC value of the compounds.

[15] = test system: six prokaryotic (bacteria) and one eukaryotic (yeast) microorganism species; experiment: Toxicity screen, whole panel of microorganisms; assay type: cell-based; details: concentrations tested 10 to 0.001 mM
Procedure: as §2, §3, §4

| SMILES | PDI ± SD, 1 Set [1] | Zeta-Pot ± SD [1] [mV] | PDI ± SD, 2 Set [1] | Stability of nanoparticles [1] | Cytotoxicity IC50, MH-22A [2] | Cytotoxicity IC50, HT-1080 [3] | Toxicity category from estimated LD50 [4] | IC50 at 72 h [5] [µM] | IC50 at 72 h [6] [µM] | Boundary concentration, B. subtilis [7] [mM] | Boundary concentration, S. cerevisiae [8] [mM] | Boundary concentration, E. coli [9] [mM] | Boundary concentration, P. mirabilis [10] [mM] | Boundary concentration, P. aeruginosa [11] [mM] | Boundary concentration, M. luteus [12] [mM] | Boundary concentration, K. pneumoniae [13] [mM] | CAC [14] [µM] | Effect on survival of microorganisms [15] |
| --- | --- | --- | --- | --- | --- | --- | --- | --- | --- | --- | --- | --- | --- | --- | --- | --- | --- | --- |
| C#CCN1C(C)=C(C(=O)OCC)C(c2ccc[n+](CC)c2)C(C(=O)OCC)=C1C [Compound 4] | 0.16 and 0.16 ± 0.02 | −5.47 ± 1.97 | 0.41 and 0.41 ± 0.07 | lost their homogeneity after two weeks of storage; also recorded: weak stability | did not demonstrate any cytotoxic effect and ne | did not demonstrate any cytotoxic effect and ne |  |  |  |  |  |  |  |  |  |  |  |  |
| CCCCCC[n+]1cccc(C2C(C(=O)OCC)=C(C)NC(C)=C2C(=O)OCC)c1 [Compound 2] | 0.50 and 0.50 ± 0.10 | −11.39 ± 1.85 | 0.91 ± 0.10 | weak stability |  |  | non-toxic | 67 ± 4 | 26 ± 2 |  |  |  |  |  |  |  |  |  |
| C#CCN1C(C)=C(C(=O)OCC)C(c2ccc[n+](CCCCCCCCCCCCCCCC)c2)C(C(=O)OCC)=C1C [Compound 11] | 0.37 and 0.37 ± 0.03 |  | 0.33 and 0.33 ± 0.03 | stable after two weeks of storage; also recorded: confirmed the stability of nanoparticles |  |  |  |  |  | 0.0001 | 0.0001 | 0.01 | 0.0001 | 0.01 | 0.001 | 10 | 7.6 | toxic at various degrees |
| CCOC(=O)C1=C(C)NC(C)=C(C(=O)OCC)C1c1ccc[n+](CC)c1 [Compound 1] | 0.18 and 0.18 ± 0.01 | −8.43 ± 2.14 | 0.40 and 0.40 ± 0.16 | lost their homogeneity after two weeks of storage; also recorded: weak stability | did not demonstrate any cytotoxic effect and ne | did not demonstrate any cytotoxic effect and ne |  |  |  |  |  |  |  |  |  |  |  |  |
| C#CCN1C(C)=C(C(=O)OCC)C(c2ccc[n+](CCCCCC)c2)C(C(=O)OCC)=C1C [Compound 5] | 0.72 and 0.72 ± 0.32 | −9.96 ± 0.72 | 0.59 ± 0.01 | weak stability |  |  | non-toxic | 16 ± 1 | 5 ± 0.3 |  |  |  |  |  |  |  |  |  |
| C#CCOC(=O)C1=C(C)NC(C)=C(C(=O)OCC#C)C1c1ccc[n+](CCCCCC)c1 [Compound 8] | 0.60 and 0.60 ± 0.06 |  | 0.45 ± 0.05 |  |  |  | non-toxic | 80 ± 5 | 76 ± 8 |  |  |  |  |  |  |  |  |  |
